Results from US20120259413A1, “DEVICES, COMPOSITIONS AND METHODS UTILIZING EP4 AND EP2 RECEPTOR AGONISTS FOR PREVENTING, REDUCING OR TREATING CAPSULAR CONTRACTURE” (ALLERGAN, INC., priority 2011, published 2012).

Columns and labels:
incisional skin wounds [1] = experiment: Incisional skin wound study comparing Compound I and TGF-β3; format: in vivo, rats; details: for number of neutrophils counted in three sections: 3 days post-surgery, H&E, n=5, vehicle 60.6±30; for macroscopic surface appearance of wound sites / abnormal regions of dense, red, fine parallel fibers in wound gaps: 70 days post-surgery; for abnormal regions of dense, red, fine parallel fibers in wound gaps: Picrosirius red; for widths of the abnormal structured dermis regions versus vehicle: day 14, Masson trichrome; for gap width in-between the normal fibrils versus vehicle / collagen fibrils at wound sites under polarized light: day 14, Picrosirius red; for gap width in-between the normal fibrils versus vehicle: p<0.05; for collagen fibrils at wound sites under polarized light: yellow type I, green type III collagen
Protocol: A similar skin wound study was also performed comparing the effects of Compound I and TGF-β3. In this study, intradermal injections of Compound I at 0.004%, TGF-β3 at 100 ng/200 μl or vehicle were given right before closing the wounds. Afterward, TGF-β3 was injected two more times, on day 1 and 2, and Compound I and vehicle were topically applied twice a day for the duration of the study. The vehicle was PBS with 0.1% BSA and 4 mM HCl in a total volume of 200 μl for injection. Skin wounds were imaged on day 3, 7, 14, 35 and 70.
(§1) The wound tissue was biopsied for histopathology on day 3, 14 and 70. To observe the skin wound, paraffin-embedded wound sections were made. Regular H&E staining was carried out in comparison with Masson trichrome and/or Picosirus red to visualize the collagen fibers. To monitor myofibroblasts in skin wound, the sections were immunohistochemically stained to identify alpha-smooth muscle actin. To assess wound appearance, all the scar photos were mixed together by the end of each study. The scar severity was scored on a scale of 0 to 10, with 0 being invisible, 1 the minimal and 10 the worst. Each scar was divided into 4 regions, separated by suture sites; each quarter was scored independently; the mean of the 4 part scores was recorded as the gross score of each wound.

hEP2 [2] = biological target: T1, hEP2 (Homo sapiens, UniProt P43116); experiment: Radioligand binding assay ([3H]PGE2 competition), EP2 receptor
T1 construct: expressed in transfected cells
T1 sequence (P43116 whole entry): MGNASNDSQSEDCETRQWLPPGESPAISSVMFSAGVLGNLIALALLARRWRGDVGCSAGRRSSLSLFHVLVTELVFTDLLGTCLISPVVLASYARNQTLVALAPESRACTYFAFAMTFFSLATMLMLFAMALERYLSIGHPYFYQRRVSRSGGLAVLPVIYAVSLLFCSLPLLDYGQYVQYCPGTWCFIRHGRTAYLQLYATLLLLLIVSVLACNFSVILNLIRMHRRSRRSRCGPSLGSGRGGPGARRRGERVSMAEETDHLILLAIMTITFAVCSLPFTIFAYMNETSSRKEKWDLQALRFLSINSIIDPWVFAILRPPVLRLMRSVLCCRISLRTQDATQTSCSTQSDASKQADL
Protocol: (§2) General Protocol for Radioligand Binding Assays and cAMP assays:
(§3) Radioligand binding studies on plasma membrane fractions prepared from cells** are performed as follows. Cells washed with TME buffer are scraped from the bottom of the flasks and homogenized for 30 sec using a Brinkman PT 10/35 polytron. TME buffer is added as necessary to achieve a 40 ml volume in the centrifuge tubes. TME is comprised of 50 mM TRIS base, 10 mM MgCl2, 1 mM EDTA; pH 7.4 is achieved by adding 1 N HCl. The cell homogenate is centrifuged at 19,000 rpm for 20-25 min at 4° C. using a Beckman Ti-60 or Tt-70 rotor. The pellet is then re-suspended in TME buffer to provide a final protein concentration of 1 mg/ml, as determined by Bio-Rad assay. Radioligand binding assays are performed in a 100 μl or 200 μl volume.
(§4) The binding of [^3H] PGE2 (specific activity 165 Ci/mmol) is determined in duplicate and in at least 3 separate experiments. […] PGE2 and non-specific binding is determined with 10^−5 M unlabelled PGE2. […]
(§5) Plasmids encoding the human EP1, EP2, EP3, EP4, FP, TP, IP and DP receptors are prepared by cloning the respective coding sequences into the eukaryotic expression vector pCEP4 (Invitrogen). […] Selection of stable transfectants is achieved with 200 μg ml^−1 hygromycin, the optimal concentration being determined by previous hygromycin kill curve studies. […]

[3] = biological target: T2, human recombinant EP2 receptor (HEK-293 cells) (Homo sapiens, UniProt P43116); experiment: AlphaScreen cAMP assay, EP2 receptor; format: cell-based; details: read-out: cAMP enhancement EC50
T2 construct: expressed in transfected cells
T2 sequence (P43116 whole entry): as above
Protocol: (§6) cAMP assay was carried out using AlphaScreen cAMP assay kits (PerkinElmer, Boston, Mass.) following manufacturer instructions. Intracellular Ca^2+ was monitored using a FLIPR Tetra system and assay kits from Molecular Devices following manufacturer instructions. All assays were carried out in HEK-293 cells heterologously and stably expressing each of the eight human recombinant prostanoid receptors. For Ca^2+ signals, hEP2, hEP4, hDP were co-expressed with a chimeric G protein, Gqs, which converts Gs signal to Gq Ca^2+ signal, and hEP3 with a chimeric G protein, Gqi. Each receptor-selective agonist induced Ca^2+ signals with sub-nanomolar or nanomolar EC50 values. Subtype-selective compounds used here are PGE2 for EP1, EP2, EP3 and EP4; BW245C for DP; 17-phenyl PGF2α for FP, carbacyclin for IP and U-46619 for TP.
(§7) Human Recombinant EP1, EP2, EP3, EP4, FP, TP, IP and DP Receptors: Stable Transfectants
as §5

hEP2 [4] = biological target: T1, hEP2; experiment: FLIPR Ca2+ signal assay, hEP2 co-expressed with Gqs; format: cell-based; details: EP2 receptor
Protocol: as §6, §7, §5

[5] = tested on: cultured human skin fibroblasts; experiment: TGF-β1-induced myofibroblast formation (α-SMA Western blot); format: cell-based; details: 10 or 100 nM with TGF-β1 2 ng/ml, 72 hours
Protocol: EP4 and EP2 Receptor Agonists Inhibit TGF-β1-Induced Myofibroblasts Formation
Adult skin fibroblasts were derived from normal skin of a person, purchased from ATCC(CRL-7346). Cells were cultured in DMEM medium supplemented with 10% fetal bovine serum and 1% streptomycin and penicillin in incubators at 37° C. and 5% CO2. Cells were seeded in 10 cm dishes at 1×10^6 cells/dish. When the cells became 80% confluent, they were cultured in serum-free medium for 48 hrs after washing away residual serum with PBS. Vehicle, Compound I (EP4 receptor agonist), or Compound II (EP2 receptor agonist), together with human recombinant TGF-β1 (2 ng/ml), were added to culture medium at 0, 10 or 100 nM final concentration, respectively. Compound I or 2 was first dissolved in DMSO, the final DMSO concentration was 0.1%. Cell lysates were collected at 72 hours after treatments, respectively. Proteins were quantified and resolved on 4-10% SDS-PAGE. Then the proteins were transferred to membrane by electrophoresis. The membranes were blocked with mouse-anti-alpha smooth muscle actin (α-SMA) antibody, and a second antibody against mouse-IgG conjugated with AP (purchased from Signal Transduction). Shown in FIG. 1A is a representative image of Western Blot myofibroblast marker expression under the treatment of EP4 or EP2 receptor agonists in combination with TGF-β1 in cultured human skin fibroblasts.

[6] = biological target: T3, human recombinant EP4 receptor (Homo sapiens, UniProt P35408); experiment: Radioligand binding assay ([3H]PGE2 competition), EP4 receptor
T3 construct: expressed in transfected cells
T3 sequence (P35408 whole entry): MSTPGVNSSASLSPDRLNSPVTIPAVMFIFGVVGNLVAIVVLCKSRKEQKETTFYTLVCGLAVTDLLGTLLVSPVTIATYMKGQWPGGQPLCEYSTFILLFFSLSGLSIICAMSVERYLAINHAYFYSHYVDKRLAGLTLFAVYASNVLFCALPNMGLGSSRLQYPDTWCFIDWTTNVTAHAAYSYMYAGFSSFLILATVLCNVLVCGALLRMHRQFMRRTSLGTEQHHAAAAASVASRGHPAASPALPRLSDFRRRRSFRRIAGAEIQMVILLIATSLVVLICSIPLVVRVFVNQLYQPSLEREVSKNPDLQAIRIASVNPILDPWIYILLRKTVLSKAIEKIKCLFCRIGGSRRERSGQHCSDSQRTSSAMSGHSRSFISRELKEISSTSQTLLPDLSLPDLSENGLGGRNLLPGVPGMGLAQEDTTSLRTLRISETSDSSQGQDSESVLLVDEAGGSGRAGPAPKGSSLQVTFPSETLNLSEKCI
Protocol: as §2, §3, §4, §5

[7] = biological target: T4, human recombinant EP4 receptor (HEK-293 cells) (Homo sapiens, UniProt P35408); experiment: AlphaScreen cAMP assay, EP4 receptor; format: cell-based; details: read-out: EC50 for increased cAMP production
T4 construct: expressed in transfected cells
T4 sequence (P35408 whole entry): as above
Protocol: as §6, §7, §5

hEP4/Gqs = biological target: T5, hEP4/Gqs (Homo sapiens, UniProt P35408); experiment: FLIPR Ca2+ signal assay, hEP4/Gqs; format: cell-based
T5 construct: expressed in transfected cells
T5 sequence (P35408 whole entry): as above
Protocol: as §6, §7, §5

incisional skin wounds [8] = experiment: Incisional skin wound study, 14 day pilot, topical treatment; format: in vivo, Sprague-Dawley rats
Protocol: Sprague-Dawley rats weighing 180-200 grams were anesthetized with isoflourane. After shaving, a 2-cm long incision was made, reaching the deep fascia on the back skin of rats under sterile conditions. The wounds were immediately closed with 4-0 sutures. A 14 day pilot study was carried out. The animals were topically treated with vehicle or Compound 1 at 0.004% twice daily. The vehicle contained ethanol 30%, propylene glycol 12%, dipropylene glycol 5%, benzyl alcohol 5%, glycerol 3% and normal saline 45%. The wound was photographed daily; biopsy was performed at 2, 3, 7 and 14 days post-surgery for histopathology and molecular biology analysis.
as §1

bFGF = bFGF expression at wound sites (Western blot); format: in vivo, Sprague Dawley rats; details: wound tissue, day-7 and day-14
Protocol: (§8) 2 cm long incisional full thickness skin wounds were made on the back of Sprague Dawley rats. Wounds were treated with vehicle or EP4 agonist (compound I). The wound tissue was biopsied at day-7 or day-14 post-surgery. The samples were homogenized in protein extraction buffer after being frozen in liquid nitrogen. The protein concentrations were measured. Then the samples were loaded into 4-10% SDS-Pages to resolve the proteins. After electrophoresis, the proteins were transferred onto nitrocellular membranes. The membranes were blocked with anti-VEGF, anti-bFGF or anti-beta-actin, respectively. […] It is reported that bFGF prevents scar formation and reduces hypertrophic and burn-induced skin scars. VEGF expression was boosted by 25% transiently at day-7, which may contribute to angiogenesis at wound site and facilitate scar-free healing.

VEGF = VEGF expression at wound sites (Western blot); format: in vivo, Sprague Dawley rats; details: wound tissue, transiently at day-7
Protocol: as §8

[9] = 14 days post-surgery, Masson Trichrome

## TGF-β3: a leading treatment for wounds, reportedly reducing skin scar in both animals and human; comparator
Incisional skin wounds [1]
  number of neutrophils counted in three sections: 53.8±17
  macroscopic surface appearance of wound sites: still showed traces of wounds
  abnormal regions of dense, red, fine parallel fibers in wound gaps: largely absent
  gap width in-between the normal fibrils versus vehicle: significantly narrower
  collagen fibrils at wound sites under polarized light: some green fibers at the bottom of the wounds
Incisional skin wounds [1]; p<0.01-0.05
  widths of the abnormal structured dermis regions versus vehicle: significantly smaller
Incisional skin wounds [1]; day 70, Masson trichrome
  size of residual scar regions versus vehicle: remarkably smaller

## CCCCC[C@H](O)c1ccc(N2C(=O)CC[C@@H]2CCCc2ccc(C(=O)O)s2)cc1 [Compound II]
hEP2 [2]
  Ki: 21 nM
[3]
  EC50: 0.19 nM
hEP2 [4]
  EC50: 6.7 nM
[5]
  TGF-β1-up-regulated expression of α-SMA: dramatically ameliorated

## CC1(C)C(=O)[C@H](C/C=C\CCCC(=O)O)[C@@H](/C=C/[C@H](O)CCc2sc3ccccc3c2Cl)[C@@H]1O [Compound I]
[6]
  Ki: 6.7 ± 0.7 nM
[7]
  EC50: 0.25 ± 0.03 nM
hEP4/Gqs
  EC50: 0.11 ± 0.05 nM
[5]
  TGF-β1-up-regulated expression of α-SMA: dramatically ameliorated
Incisional skin wounds [8]; 7 days post-skin incision
  epidermal thickness of vehicle-treated skin relative to Compound I treated epidermis: 3 times
  thickness of epidermal layer of treated skin: close to the nearby normal epidermis
Incisional skin wounds [8]; 14 days post-surgery
  gross skin scar appearance versus vehicle-treated animals: smaller and softer skin scar
Incisional skin wounds [8]; [9]
  scar width at the superficial region: only a tendency to decrease
  scar width in the middle and bottom parts of scars: significantly reduced
Incisional skin wounds [8]; day 3
  overall size of epidermal defects, vehicle-treated wounds compared with Compound I treated wounds: two times larger
Incisional skin wounds [8]; day 3, 0.004% topical twice daily
  skin wound samples with closed epidermis filled with keratinocytes: 80%
Incisional skin wounds [8]; day 3 samples, vehicle control 38±6.15
  number of myofibroblasts (α-SMA-positive cells): 25.8±7.45 /3 sections
Incisional skin wounds [8]; days 2 and 3
  polymorphonuclear cell infiltration at wound sites: significantly reduced
Incisional skin wounds [1]
  number of neutrophils counted in three sections: 31.4±8
  macroscopic surface appearance of wound sites: wound sites were not even detectable
  abnormal regions of dense, red, fine parallel fibers in wound gaps: largely absent
  gap width in-between the normal fibrils versus vehicle: significantly narrower
  collagen fibrils at wound sites under polarized light: large yellow-stained collagen bundles almost crossing over the entire wound sites
Incisional skin wounds [1]; p<0.01-0.05
  widths of the abnormal structured dermis regions versus vehicle: significantly smaller
Incisional skin wounds [1]; day 70, Masson trichrome
  size of residual scar regions versus vehicle: remarkably smaller
Incisional skin wounds [1]; day 70, Masson trichrome, p<0.01-0.05
  effect on residual scar size compared with TGF-β3: more noticeable than TGF-β3
bFGF
  enhancement of bFGF expression: up to 60%
VEGF
  boost of VEGF expression: 25%
